Results on 1 compound are retold here after publication PMC8011931, “Identification, Structure–Activity Relationship, and Biological Characterization of 2,3,4,5-Tetrahydro-1H-pyrido[4,3-b]indoles as a Novel Class of CFTR Potentiators” (Journal of Medicinal Chemistry, 2020).

Where two headings read alike, the source gives them in different places.

Data set [1] is described as follows: Lung tissue distribution after a single oral dose to rats. The data set is classed as in vivo. To be noted: Sprague-Dawley, rat, p.o., 10 mg/kg. As for the experimental part: Taking into account both the encouraging results in rescuing the gating defect in mutant CFTR in both primary and secondary biological assays, and the promising in vivo PK profile, we quantified the amount of compound 39 in rat lung tissue, the main target organ for CF treatment. The lung tissue distribution of potentiator 39 was investigated following administration of a single oral dose of 10 mg/kg to Sprague–Dawley rats. Supported by the data obtained in the pharmacokinetic study after oral administration, two time points (2 and 4 h) were selected for collecting plasma and lung tissue samples. The mean concentration vs. time profiles of compound 39 in plasma and lung tissue are reported in Figure S2 (see the Supporting Information).
Three animals per dose and timing were treated. Compound 39 was dissolved in PEG400/Tween80/saline solution at 10/10/80% in volume and administered orally at a dose of 10 mg/kg. After 120 and 240 min, rats were sacrificed and lungs were immediately dissected, frozen on dry ice, and stored at −80 °C until analysis. Lung samples were homogenized in RIPA buffer (150 mM NaCl, 1.0% Triton X-100, 0.5% sodium deoxycholate, 0.1% sodium dodecyl sulfate, 50 mM Tris, and pH 8.0) and then split into two aliquots kept at −80 °C until analysis. An aliquot was used for compound lung-level evaluations. The second aliquot was kept for protein content evaluation using the bicinchoninic acid assay (Thermo Scientific, Rockford, IL, USA).
Plasma samples were centrifuged at 21,100g for 15 min at 4 °C, while homogenized lung samples were vigorously whirled. An aliquot of each sample was extracted (1:3) with cold CH3CN containing 200 nM of an appropriate internal standard being a close analogue of the parent compound. A calibration curve was prepared in both blank mouse plasma and naïve lung homogenate over a 1 nM to 10 μM range. Three quality controls were prepared by spiking the parent compound in both blank mouse plasma and naïve lung homogenate to 20, 200, and 2000 nM as final concentrations. The calibrators and quality controls were extracted (1:3) with the same extraction solution as the plasma and lung samples. The plasma and lung samples, the calibrators, and quality controls were centrifuged at 3270g for 15 min at 4 °C. The supernatants were further diluted (1:1) with H2O and analyzed by LC/MS–MS on a Waters ACQUITY UPLC/MS TQD system consisting of a TQD mass spectrometer equipped with an electrospray ionization interface and a photodiode array eλ detector. Electrospray ionization was applied in the positive mode. […] All samples (plasma and lung samples, calibrators, and quality controls) were quantified by MRM peak area response factor in order to determine the levels of the parent compound in plasma and lung. […]

Data set [2] concerns the target F508del-CFTR (Homo sapiens, UniProt P13569, DEL508-508). In words: 24 h co-incubation with correctors, YFP-based functional assay on F508del-CFTR CFBE41o- cells. Particulars: 39 5 μM with VX-809 1 μM or ARN23765 10 nM. The data set is classed as cell-based. Further details: expressed in transfected cells. As for the experimental part: Recent studies have shown that most potentiators have an undesired activity on F508del-CFTR protein processing/trafficking.[39],[40] According to these studies, chronic incubation with potentiators results in decreased activity of VX-809 as a corrector. To test the effect of our potentiators, we incubated F508del-CFTR CFBE41o-cells for 24 h with tetrahydro-γ-carboline 39 (5 μM) together with VX-809 (1 μM) and ARN23765 (10 nM), the picomolar affinity corrector recently reported by our research team.[35] […]
Prior assay, cells were washed with phosphate-buffered saline (PBS) containing (in mM) 137 NaCl, 2.7 KCl, 8.1 Na2HPO4, 1.5 KH2PO4, 1 CaCl2, and 0.5 MgCl2. […] Cells were then transferred to microplate readers (FluoStar Optima; BMG Labtech, Offenburg, Germany) for CFTR activity determination. The plate readers were equipped with high-quality excitation (HQ500/20X: 500 ± 10 nm) and emission (HQ535/30M: 535 ± 15 nm) filters for YFP (Chroma Technology). The assay consisted of a continuous 14 s fluorescence reading, 2 s before and 12 s after injection of 165 μL of an iodide-containing solution (PBS with Cl^– replaced by I^–; final I^– concentration 100 mM). Data were normalized to the initial background-subtracted fluorescence. […]

The mark [3] stands for this setting: lung, read-out: concentration in the lungs.

Chain of F508del-CFTR (P13569 with tags, fused parts or gaps DEL508-508): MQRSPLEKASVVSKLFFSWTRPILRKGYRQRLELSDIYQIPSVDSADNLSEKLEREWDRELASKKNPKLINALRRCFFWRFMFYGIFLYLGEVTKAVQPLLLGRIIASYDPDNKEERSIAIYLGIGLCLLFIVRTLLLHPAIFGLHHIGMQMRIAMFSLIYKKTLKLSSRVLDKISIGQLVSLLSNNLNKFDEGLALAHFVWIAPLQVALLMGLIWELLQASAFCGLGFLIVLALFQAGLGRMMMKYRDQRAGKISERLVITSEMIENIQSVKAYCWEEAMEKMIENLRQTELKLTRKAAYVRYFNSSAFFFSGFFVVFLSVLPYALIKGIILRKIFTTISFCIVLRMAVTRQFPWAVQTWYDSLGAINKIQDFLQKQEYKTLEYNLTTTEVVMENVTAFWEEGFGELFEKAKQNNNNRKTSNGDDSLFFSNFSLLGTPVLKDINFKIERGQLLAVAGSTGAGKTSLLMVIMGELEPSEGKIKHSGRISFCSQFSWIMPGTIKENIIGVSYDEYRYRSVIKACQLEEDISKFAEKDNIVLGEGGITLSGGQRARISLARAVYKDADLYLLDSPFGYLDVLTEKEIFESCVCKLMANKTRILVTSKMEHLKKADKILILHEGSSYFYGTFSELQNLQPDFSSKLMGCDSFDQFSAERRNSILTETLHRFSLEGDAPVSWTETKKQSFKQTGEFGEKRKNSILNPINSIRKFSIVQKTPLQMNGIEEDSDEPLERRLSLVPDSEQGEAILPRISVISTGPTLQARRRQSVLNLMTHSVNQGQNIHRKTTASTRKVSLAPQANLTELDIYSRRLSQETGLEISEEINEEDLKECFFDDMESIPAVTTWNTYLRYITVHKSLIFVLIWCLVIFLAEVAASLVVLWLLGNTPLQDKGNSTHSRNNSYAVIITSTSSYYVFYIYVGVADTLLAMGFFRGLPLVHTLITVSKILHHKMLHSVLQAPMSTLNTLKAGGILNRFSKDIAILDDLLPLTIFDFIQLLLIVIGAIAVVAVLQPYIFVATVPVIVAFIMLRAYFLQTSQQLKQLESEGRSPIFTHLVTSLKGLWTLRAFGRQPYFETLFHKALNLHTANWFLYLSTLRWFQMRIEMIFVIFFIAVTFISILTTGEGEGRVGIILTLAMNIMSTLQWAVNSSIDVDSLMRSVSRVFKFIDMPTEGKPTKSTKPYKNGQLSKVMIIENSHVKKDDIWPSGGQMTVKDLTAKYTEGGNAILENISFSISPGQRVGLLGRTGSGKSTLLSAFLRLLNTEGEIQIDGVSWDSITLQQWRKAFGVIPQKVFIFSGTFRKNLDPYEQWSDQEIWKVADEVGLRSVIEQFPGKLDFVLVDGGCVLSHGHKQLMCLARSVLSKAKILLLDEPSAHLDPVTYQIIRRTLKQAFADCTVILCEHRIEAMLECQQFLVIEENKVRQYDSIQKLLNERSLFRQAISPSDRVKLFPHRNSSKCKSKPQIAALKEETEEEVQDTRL

`Cc1ccc(F)c2[nH]c3c(c12)CN(C(=O)c1cc(C(F)(F)F)[nH]n1)[C@H](C)C3` [Compound 39, (R)-(6-Fluoro-3,9-dimethyl-1,3,4,5-tetrahydro-2H-pyrido[4,3-b]indol-2-yl)-(5-(trifluoromethyl)-1H-pyrazol-3-yl)methanone]: the concentration at 2 h in data set [1] (setting [3]) stood at 4500 ng/g; in data set [1] (plasma, read-out: plasma level) it was 1030 ng/mL. The concentration at 4 h in data set [1] (setting [3]) amounted to 2200 ng/g; in data set [1] (plasma, read-out: plasma level) it was 675 ng/mL. The “effect on rescue efficacy of VX-809 or ARN23765” value in data set [2] is “did not affect the rescue efficacy”.
